PubChem BioAssay AID248 (DTP/NCI, 2004)
Values joined by “and” are separate entries in the source; they are usually repeats but may differ in a detail not shown here. Equal values may be shown once. Toxic doses and inconclusive results are not listed. Cut-off read from the data, not from the text of the source: active = T/C of 150% or more; inactive = T/C below 125%. Numbered stars: 1 amine (or outer) side, 2 acyl side, 3 side chain; on linkers, the order of the positions; unused ones are H or OH. Bridge positions count the residues as written; N and C are the ends. Square brackets hold non-standard residues; d marks the D form. Peptide text beside a SMILES is read from it. I, II: the chains in the order shown. * marks the point of attachment. ξ: configuration not given here. Actinocin(9to1) = Cc1c2oc3c(C)ccc(C(=O)[*:1])c3nc-2c(C(=O)[*:2])c(N)c1=O; ξW = NC(Cc1c[nH]c2ccccc12)C(=O)O; NMeV = CN[CH](C(=O)O)C(C)C; Cbz = O=C(OCc1ccccc1)*; Sar = CNCC(=O)O

Test system: L1210 leukemia ip in BDF1 mice, survival T/C
Test: NCI In Vivo Anticancer Drug Screen. Data for tumor model L1210 Leukemia (intraperitoneal) in B6D2F1 (BDF1) mice
Conditions: endpoint: mean survival time, higher = longer survival
Procedure, shortened: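 Tumor was transplanted into mice, which were then dosed with test compound or vehicle alone. Survival was recorded for each group, and the treated figure was expressed relative to the control figure.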

[1] = dose: 50.0 mg/kg/injection, schedule: Q01DX009 (ip), vehicle: Klucel (hydroxypropylcellulose) (HPC)
[2] = dose: 100.0 mg/kg/injection, schedule: Q01DX009 (ip), vehicle: Klucel (hydroxypropylcellulose) (HPC)
[3] = dose: 200.0 mg/kg/injection, schedule: Q01DX009 (ip), vehicle: Klucel (hydroxypropylcellulose) (HPC)
[4] = dose: 50.0 mg/kg/injection, schedule: Q01DX009 (ip), vehicle: saline with Tween-80
[5] = dose: 100.0 mg/kg/injection, schedule: Q01DX009 (ip), vehicle: saline with Tween-80
[6] = dose: 100.0 mg/kg/injection, schedule: Q04DX003 (ip), vehicle: saline with Tween-80
[7] = dose: 200.0 mg/kg/injection, schedule: Q04DX003 (ip), vehicle: saline with Tween-80

Measured: T/C

Nc1ccc(OCCNC(=O)c2ccc(S(=O)(=O)F)cc2)c(Cl)c1
inactive: dose: 100.0 mg/kg/injection, schedule: Q01DX001 (ip), vehicle: saline with Tween-80 94 % of control | dose: 200.0 mg/kg/injection, schedule: Q01DX001 (ip), vehicle: saline with Tween-80 89 % of control | dose: 400.0 mg/kg/injection, schedule: Q01DX001 (ip), vehicle: saline with Tween-80 96 % of control

Cc1c(C)c2c(c(C)c1O)CCC(C)(C)O2
inactive: [1] 97 % of control | [2] 100 % of control | [3] 103 % of control

COC(=O)Nc1cccc2c1C=CC(C#N)N2C(=O)OC (stereo not given)
inactive: [2] 93 % of control | dose: 100.0 mg/kg/injection, schedule: Q04DX003 (ip), vehicle: Klucel (hydroxypropylcellulose) (HPC) 87 % of control | [3] 100 % of control | dose: 200.0 mg/kg/injection, schedule: Q04DX003 (ip), vehicle: Klucel (hydroxypropylcellulose) (HPC) 91 % of control | dose: 400.0 mg/kg/injection, schedule: Q04DX003 (ip), vehicle: Klucel (hydroxypropylcellulose) (HPC) 100 % of control

Nc1ncnc2c1c(Br)cn2C1OC(CO)C(O)C1O (stereo not given)
inactive: dose: 5.0 mg/kg/injection, schedule: Q01DX001 (ip), vehicle: carboxymethylcellulose (CMC) 106 % of control

O=C(C[n+]1cccc(CO)c1)c1ccc(-c2ccc(C(=O)C[n+]3cccc(CO)c3)cc2)cc1
inactive: dose: 0.05 mg/kg/injection, schedule: Q04DX003 (ip), vehicle: saline 105 % of control | dose: 0.1 mg/kg/injection, schedule: Q04DX003 (ip), vehicle: saline 100 % of control | dose: 0.2 mg/kg/injection, schedule: Q04DX003 (ip), vehicle: saline 108 % of control

COc1cc(Nc2ccc(O)c(CN3CCCCC3)c2)c2ncccc2c1
inactive: dose: 75.0 mg/kg/injection, schedule: Q01DX001 (ip), vehicle: other 98 % of control | dose: 150.0 mg/kg/injection, schedule: Q01DX001 (ip), vehicle: other 98 % of control | dose: 300.0 mg/kg/injection, schedule: Q01DX001 (ip), vehicle: other 91 % of control

CCCCCCCCN1C(=O)C2C(C1=O)C1(Cl)C(Cl)=C(Cl)C2(Cl)C1(Cl)Cl (stereo not given)
inactive: dose: 100.0 mg/kg/injection, schedule: Q01DX009 (ip), vehicle: saline 95 % of control | dose: 200.0 mg/kg/injection, schedule: Q01DX009 (ip), vehicle: saline 97 % of control | dose: 400.0 mg/kg/injection, schedule: Q01DX009 (ip), vehicle: saline 93 % of control

c1ccc(NC2CCCCC2)nc1
inactive: dose: 100.0 mg/kg/injection, schedule: Q04DX003 (ip), vehicle: gum acacia 95 % of control | dose: 200.0 mg/kg/injection, schedule: Q04DX003 (ip), vehicle: gum acacia 98 % of control | dose: 400.0 mg/kg/injection, schedule: Q04DX003 (ip), vehicle: gum acacia 96 % of control

CCCC(C)(O)C#CC(C)(O)CCC (stereo not given)
inactive: [4] 97 % of control | [5] 95 % of control | [6] 100 % of control | dose: 200.0 mg/kg/injection, schedule: Q01DX009 (ip), vehicle: saline with Tween-80 97 % of control | [7] 95 % of control

O=C1CN(CCN2CC(=O)NC2=S)C(=S)N1
inactive: dose: 100.0 mg/kg/injection, schedule: Q04DX002 (ip), vehicle: saline with Tween-80 95 % of control | dose: 200.0 mg/kg/injection, schedule: Q04DX002 (ip), vehicle: saline with Tween-80 100 % of control

COC(=O)C(Cc1c[nH]c2ccccc12)NC(=O)CNC(=O)CNC(=O)OCc1ccccc1 (stereo not drawn) (Cbz-Gly-Gly-[ξW]-OMe)
inactive: [6] 105 % of control | [7] 101 % of control | dose: 400.0 mg/kg/injection, schedule: Q04DX003 (ip), vehicle: saline with Tween-80 100 % of control

O=S(=O)(Cc1ccccc1)C(Cl)Cl
inactive: dose: 75.0 mg/kg/injection, schedule: Q01DX001 (ip), vehicle: saline 96 % of control | dose: 150.0 mg/kg/injection, schedule: Q01DX001 (ip), vehicle: saline 94 % of control | dose: 300.0 mg/kg/injection, schedule: Q01DX001 (ip), vehicle: saline 96 % of control

NC(C[Se][Se]CC(N)C(=O)O)C(=O)O (stereo not given)
inactive: dose: 1.56 mg/kg/injection, schedule: Q04DX002 (ip), vehicle: saline 103 % of control | dose: 3.12 mg/kg/injection, schedule: Q04DX002 (ip), vehicle: saline 103 % of control | dose: 6.25 mg/kg/injection, schedule: Q04DX002 (ip), vehicle: saline 103 % of control | dose: 12.5 mg/kg/injection, schedule: Q04DX002 (ip), vehicle: saline 88 % of control

CC(C)CN=C(N)N=C(N)N
inactive: dose: 50.0 mg/kg/injection, schedule: Q01DX009 (ip), vehicle: water 95 % of control | dose: 50.0 mg/kg/injection, schedule: Q04DX003 (ip), vehicle: water 102 % of control | dose: 100.0 mg/kg/injection, schedule: Q01DX001 (ip), vehicle: water 96 % of control | dose: 100.0 mg/kg/injection, schedule: Q01DX009 (ip), vehicle: water 97 % of control | dose: 100.0 mg/kg/injection, schedule: Q04DX003 (ip), vehicle: water 104 % of control | dose: 200.0 mg/kg/injection, schedule: Q01DX001 (ip), vehicle: water 103 % of control | dose: 200.0 mg/kg/injection, schedule: Q04DX003 (ip), vehicle: water 107 % of control

O=C(Cl)c1ccccc1Sc1ccccc1
inactive: dose: 25.0 mg/kg/injection, schedule: Q01DX009 (ip), vehicle: saline with Tween-80 106 % of control | [4] 97 % of control | [5] 92 % of control

O=C(Nc1cc(C(F)(F)F)ccc1Cl)Oc1ccc(Cl)cc1Cc1ccccc1
inactive: dose: 25.0 mg/kg/injection, schedule: Q01DX009 (ip), vehicle: Klucel (hydroxypropylcellulose) (HPC) 93 % of control | [1] 88 % of control | [2] 101 % of control and 86 % of control and 88 % of control

CCCCNC(N)=O
inactive: dose: 100.0 mg/kg/injection, schedule: Q04DX002 (ip), vehicle: saline 101 % of control | dose: 200.0 mg/kg/injection, schedule: Q04DX002 (ip), vehicle: saline 96 % of control | dose: 400.0 mg/kg/injection, schedule: Q04DX002 (ip), vehicle: saline 92 % of control

O=C1c2cc(Br)ccc2-c2cc(Br)c(NC(=O)C(F)(F)F)c(Br)c21
inactive: dose: 100.0 mg/kg/injection, schedule: Q01DX001 (ip), vehicle: carboxymethylcellulose (CMC) 92 % of control | dose: 200.0 mg/kg/injection, schedule: Q01DX001 (ip), vehicle: carboxymethylcellulose (CMC) 108 % of control | dose: 400.0 mg/kg/injection, schedule: Q01DX001 (ip), vehicle: carboxymethylcellulose (CMC) 99 % of control

Clc1ccc(/C=N/Nc2nc3ccccc3s2)cc1
inactive: dose: 222.0 mg/kg/injection, schedule: Q01DX Z (ip), vehicle: methylcellulose (MC) 97 % of control | dose: 333.0 mg/kg/injection, schedule: Q01DX Z (ip), vehicle: methylcellulose (MC) 101 % of control | dose: 500.0 mg/kg/injection, schedule: Q01DX Z (ip), vehicle: methylcellulose (MC) 91 % of control

Cc1c2oc3c(C)ccc(C(=O)NC4C(=O)NC(C(C)C)C(=O)N5CCCC5C(=O)N(C)CC(=O)N(C)C(C(C)C)C(=O)OC4C)c3nc-2c(C(=O)NC2C(=O)NC(C(C)C)C(=O)N3CCCC3C(=O)N(C)CC(=O)N(C)C(C(C)C)C(=O)OC2C)c(N)c1=O (stereo not given) (I: TVP[Sar][NMeV] / II: TVP[Sar][NMeV]; ester I:1-I:C, II:1-II:C; linker I:N-II:N via Actinocin(9to1); configuration not given here)
inactive: dose: 0.05 mg/kg/injection, schedule: Q01DX009 (ip), vehicle: water 117 % of control | dose: 0.1 mg/kg/injection, schedule: Q01DX009 (ip), vehicle: water 106 % of control | dose: 0.2 mg/kg/injection, schedule: Q01DX009 (ip), vehicle: water 120 % of control | dose: 0.3 mg/kg/injection, schedule: Q04DX003 (ip), vehicle: water 124 % of control | dose: 0.4 mg/kg/injection, schedule: Q01DX009 (ip), vehicle: water 93 % of control | dose: 1.2 mg/kg/injection, schedule: Q04DX003 (ip), vehicle: water 110 % of control | dose: 1.8 mg/kg/injection, schedule: Q04DX003 (ip), vehicle: water 91 % of control
